Activity calls are given as the source filed them. No cut-off for these calls is given here.
Key:
Bile acid receptor = molecular target: T1, Bile acid receptor (Homo sapiens, UniProt Q96RI1); assay: Antagonist activity at FXR (unknown origin) expressed in HEK293T cells cotransfected with pCMV-Script-hFXR/pGL4.11-hSHP-Luciferase incubated for 24 hrs in presence of GW4064 by Steady-glo luciferase assay; type: cell-based
T1 sequence (Q96RI1 whole entry): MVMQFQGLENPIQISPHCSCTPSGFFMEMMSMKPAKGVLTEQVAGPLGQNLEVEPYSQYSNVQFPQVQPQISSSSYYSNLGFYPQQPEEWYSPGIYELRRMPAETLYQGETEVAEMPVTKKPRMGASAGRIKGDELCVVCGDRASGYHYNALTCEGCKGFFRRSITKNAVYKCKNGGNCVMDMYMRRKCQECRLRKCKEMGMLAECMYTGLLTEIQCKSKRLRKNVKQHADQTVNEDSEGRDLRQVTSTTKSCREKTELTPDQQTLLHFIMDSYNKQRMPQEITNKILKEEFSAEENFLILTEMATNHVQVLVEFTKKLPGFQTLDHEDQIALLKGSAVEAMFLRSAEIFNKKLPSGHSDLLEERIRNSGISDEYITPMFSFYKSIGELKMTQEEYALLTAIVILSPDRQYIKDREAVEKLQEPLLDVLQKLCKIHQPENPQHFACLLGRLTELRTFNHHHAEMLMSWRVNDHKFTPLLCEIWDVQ

[1] = molecular target: T2, Bile acid receptor (Mus musculus) (UniProt Q60641); assay: In vivo antagonist activity against FXR in mouse assessed as stimulation of organoids growth in presence of FXR agonist; type: functional
T2 sequence (whole entry): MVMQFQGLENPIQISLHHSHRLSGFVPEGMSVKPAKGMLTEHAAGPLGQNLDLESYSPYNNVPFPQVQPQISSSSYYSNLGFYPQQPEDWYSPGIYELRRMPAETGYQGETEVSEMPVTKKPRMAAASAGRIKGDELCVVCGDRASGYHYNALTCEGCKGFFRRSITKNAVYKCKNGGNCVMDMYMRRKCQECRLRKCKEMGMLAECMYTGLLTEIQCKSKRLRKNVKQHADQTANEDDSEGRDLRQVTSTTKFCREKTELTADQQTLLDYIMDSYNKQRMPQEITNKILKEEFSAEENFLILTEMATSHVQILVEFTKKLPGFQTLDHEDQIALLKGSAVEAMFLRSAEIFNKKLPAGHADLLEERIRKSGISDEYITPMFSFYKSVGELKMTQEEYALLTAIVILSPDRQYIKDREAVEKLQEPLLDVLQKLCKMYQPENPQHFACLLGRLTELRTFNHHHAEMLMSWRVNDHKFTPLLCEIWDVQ

[2] = molecular target: T2, Bile acid receptor (Mus musculus); assay: In vivo antagonist activity against FXR in mouse assessed as reduction in Fxr level in presence of CDCA; type: functional
[3] = molecular target: T2, Bile acid receptor (Mus musculus); assay: In vivo antagonist activity against FXR in mouse assessed as reduction in Fgf15 level in presence of CDCA; type: functional
[4] = molecular target: T2, Bile acid receptor (Mus musculus); assay: In vivo antagonist activity against FXR in mouse assessed as reduction in Fxr level in presence of GW4064; type: functional
[5] = molecular target: T2, Bile acid receptor (Mus musculus); assay: In vivo antagonist activity against FXR in microbeta depleted mouse assessed as reduction in taurocholic acid induced FXR mRNA expression in hepatic signaling at 10 mg/kg, po incubated for 2 to 48 hrs; type: functional, organism-based; conditions: time 2-48 hrs
[6] = Drug distribution in C57BL6 mouse intestine at 10 mg/kg, po administered as single dose measured after 8 hrs; type: ADME, organism-based; conditions: in vivo
Mus musculus [7] = assay: Anti-NASH activity in GAN-induced […] mouse assessed as reduction in body weight at 10 mg/kg, IG measured after 12 weeks; type: functional, organism-based
Mus musculus [8] = assay: Anti-NASH activity in GAN-induced […] mouse assessed as upregulation of Ucp1 expression in inguinal white adipose tissue at 10 mg/kg; type: functional, organism-based
Mus musculus [9] = species: Mus musculus; assay: Anti-NASH activity in GAN diet-induced […] mouse assessed as reduction in liver index; type: functional, organism-based
Liver [10] = assay: Anti-NASH activity in GAN diet-induced […] mouse liver assessed as reduction in macrosteatosis by H and E staining based analysis; type: functional
Liver [11] = assay: Anti-NASH activity in GAN diet-induced […] mouse liver assessed as reduction in hepatocyte ballooning by H and E staining based analysis; type: functional, cell-based
Liver [12] = assay: Anti-NASH activity in GAN diet-induced […] mouse liver assessed as reduction in hepatocyte collagen deposition by H and E staining based analysis; type: functional, cell-based
Liver [13] = assay: Anti-NASH activity in GAN diet-induced […] mouse liver assessed as reduction in hepatocyte fat by Oil Red O staining based assay; type: functional, cell-based
Liver [14] = assay: Anti-NASH activity in GAN diet-induced […] mouse liver assessed as reduction in hepatocyte collagen deposition by Oil Red O staining based assay; type: functional, cell-based
Mus musculus [15] = species: Mus musculus; assay: Anti-NASH activity in GAN diet-induced […] mouse assessed as reduction in Cd36 mRNA expression level; type: functional, organism-based
Mus musculus [16] = species: Mus musculus; assay: Anti-NASH activity in GAN diet-induced […] mouse assessed as reduction in Fabp2 mRNA expression level; type: functional, organism-based
Mus musculus [17] = species: Mus musculus; assay: Anti-NASH activity in GAN diet-induced […] mouse assessed as reduction in Fabp3 mRNA expression level; type: functional, organism-based
Mus musculus [18] = species: Mus musculus; assay: Anti-NASH activity in GAN diet-induced […] mouse assessed as reduction in Fabp4 mRNA expression level; type: functional, organism-based
Mus musculus [19] = species: Mus musculus; assay: Anti-NASH activity in GAN diet-induced […] mouse assessed as reduction in Plin2 mRNA expression level; type: functional, organism-based
Mus musculus [20] = species: Mus musculus; assay: Anti-NASH activity in GAN diet-induced […] mouse assessed as upregulation of Ppara mRNA expression level; type: functional, organism-based
Mus musculus [21] = species: Mus musculus; assay: Anti-NASH activity in GAN diet-induced […] mouse assessed as downregulation of P-ycard level; type: functional, organism-based
Mus musculus [22] = species: Mus musculus; assay: Anti-NASH activity in GAN diet-induced […] mouse assessed as reduction in mature Il1beta; type: functional, organism-based
Mus musculus [23] = species: Mus musculus; assay: Anti-NASH activity in GAN diet-induced […] mouse assessed as reduction in Tgf-beta level; type: functional, organism-based
Mus musculus [24] = species: Mus musculus; assay: Anti-NASH activity in GAN diet-induced […] mouse assessed as suppression of Shp expression; type: functional, organism-based
Mus musculus [25] = species: Mus musculus; assay: Anti-NASH activity in GAN diet-induced […] mouse assessed as upregulation of Cyp7a1 mRNA expression in liver; type: functional, organism-based
Mus musculus [26] = assay: Anti-NASH activity in HFMCD diet-induced […] mouse assessed as reduction in hepatic TG concentration at 10 to 30 mg/kg, po for 4 weeks; type: functional, organism-based; conditions: dose 10-30 mg/kg
Mus musculus [27] = species: Mus musculus; assay: Anti-NASH activity in GAN diet-induced […] mouse assessed as reduction of bile acid pool size in ileum; type: functional, organism-based
Mus musculus [28] = species: Mus musculus; assay: Anti-NASH activity in GAN diet-induced […] mouse assessed as reduction in bile acid loss in cecum content; type: functional, organism-based
Mus musculus [29] = species: Mus musculus; assay: Anti-NASH activity in GAN diet-induced […] mouse assessed as bile acid level in serum; type: functional, organism-based
Mus musculus [30] = species: Mus musculus; assay: Anti-NASH activity in GAN diet-induced […] mouse assessed as bile acid level in gall bladder; type: functional, organism-based

With CCCC(=O)O[C@@H]1CC[C@]2(C)[C@H]3CC[C@@H]4[C@H]5[C@H](C(C)C)CC[C@]5(C(=O)NCC(=O)O)CC[C@@]4(C)[C@]3(C)CC[C@H]2C1(C)C the IC50 (Bile acid receptor) was 2.1 µM, the Activity [1] was “Active” and the Activity [2] was “Active”. The Activity [3] was “Active”, the Activity [4] was “Active” and the Activity [5] was “Active”. The Drug uptake [6] was “Active”, the Activity (Mus musculus [7]) was “Active” and the Activity (Mus musculus [8]) was “Active”. The Activity (Mus musculus [9]) was “Active”, the Activity (Liver [10]) was “Active” and the Activity (Liver [11]) was “Active”. For the same compound, the Activity (Liver [12]) was “Active”, the Activity (Liver [13]) was “Active” and the Activity (Liver [14]) was “Active”. For the same compound, the Activity (Mus musculus [15]) was “Active”, the Activity (Mus musculus [16]) was “Active” and the Activity (Mus musculus [17]) was “Active”. The Activity (Mus musculus [18]) was “Active”, the Activity (Mus musculus [19]) was “Active” and the Activity (Mus musculus [20]) was “Active”. The Activity (Mus musculus [21]) was “Active”, the Activity (Mus musculus [22]) was “Active” and the Activity (Mus musculus [23]) was “Active”. For the same compound, the Activity (Mus musculus [24]) was “Active”, the Activity (Mus musculus [25]) was “Active” and the Activity (Mus musculus [26]) was “Active”. For the same compound, the Activity (Mus musculus [27]) was “Active”, the Activity (Mus musculus [28]) was “Active” and the Activity (Mus musculus [29]) was “Active”. For the same compound, the Activity (Mus musculus [30]) was “Active”.

Source: ChEMBL document CHEMBL5096210, “Discovery of Betulinic Acid Derivatives as Potent Intestinal Farnesoid X Receptor Antagonists to Ameliorate Nonalcoholic Steatohepatitis” (J Med Chem, 2022)
